We go through 4 compounds from ChEMBL document CHEMBL1151320, “Isolation and characterization of novel endogenous digitalis-like factors in the ovary of the giant toad, Bufo marinus” (J Nat Prod, 1998).

One may read the IC50 as the midpoint of a concentration-inhibition curve. A high value points to lower potency.

The assay in a line: Inhibition of dog kidney Sodium/potassium-transporting ATPase by ELISA. Set-up: species or system Canis lupus familiaris.
`C[C@]12C[C@@H](O)[C@H]3[C@@H](CC[C@]4(O)C[C@@H](OC(=O)CCCCCCCCCCCCCO)CC[C@]34CO)[C@@]1(O)CC[C@@H]2c1ccc(=O)oc1` gave an IC50 of 0.1 µM.
`C[C@]12C[C@@H](O)[C@H]3[C@@H](CC[C@]4(O)C[C@@H](OC(=O)CCCCCCCCCCCO)CC[C@]34CO)[C@@]1(O)CC[C@@H]2c1ccc(=O)oc1` displayed an IC50 of 0.12 µM.
Regarding `C[C@]12C[C@@H](O)[C@H]3[C@@H](CC[C@]4(O)C[C@@H](OC(=O)CCCCC/C=C\CCCCCCO)CC[C@]34CO)[C@@]1(O)CC[C@@H]2c1ccc(=O)oc1`, half-maximal inhibition (IC50) was put at 0.1 µM.
Turning to `C[C@]12C[C@@H](O)[C@H]3[C@@H](CC[C@]4(O)C[C@@H](O)CC[C@]34CO)[C@@]1(O)CC[C@@H]2c1ccc(=O)oc1`, the IC50 amounted to 0.12 µM.
